{"source": "PubChem BioAssay AID1259409", "about": "(Chemical Carcinogenesis Research Information System (CCRIS), 2018)", "origin": "cited, not measured here", "tested_on": "rodent chemically induced tumor inhibition, incidence and multiplicity", "experiment": "CCRIS tumor inhibitor studies", "conditions": "Carcinogen: N-NITROSOBIS(2-OXYPROPYL)AMINE, 60599-38-4, Route [Inhibitor]: ORAL, Species: HAMSTER, Promoter: NONE USED"}
{"smiles": "CC1=C(/C=C/C(C)=C/C=C/C(C)=C/C(=O)NCCO)C(C)(C)CCC1", "values": [{"measurement": "tumour outcome (control, treated, inhibition, significance)", "setting": "Dose [Inhibitor]: 0.05, 0.1 OR 0.2 MILLIMOLAR/KG DIET FOR 32 WK STARTING 1 WK AFTER THE CARCINOGEN DOSE (STUDY DURATION: 33 WK), Strain/Sex: SYRIAN/FEMALE, Target Tissue: Type of Lesion: COMMON DUCT: ADENOMA, Dose [Carcinogen]: 40 MG/KG ONCE", "result": "4/10 (40%), 19/29 (66%), -65%, not significant"}, {"measurement": "tumour outcome (control, treated, inhibition, significance)", "setting": "Dose [Inhibitor]: 0.05, 0.1 OR 0.2 MILLIMOLAR/KG DIET FOR 32 WK STARTING 1 WK AFTER THE CARCINOGEN DOSE (STUDY DURATION: 33 WK), Strain/Sex: SYRIAN/FEMALE, Target Tissue: Type of Lesion: GALL BLADDER: ADENOMA, Dose [Carcinogen]: 40 MG/KG ONCE", "result": "6/10 (60%), 17/29 (59%), 2%, not significant"}, {"measurement": "tumour outcome (control, treated, inhibition, significance)", "setting": "Dose [Inhibitor]: 0.05, 0.1 OR 0.2 MILLIMOLAR/KG DIET FOR 32 WK STARTING 1 WK AFTER THE CARCINOGEN DOSE (STUDY DURATION: 33 WK), Strain/Sex: SYRIAN/FEMALE, Target Tissue: Type of Lesion: LUNG: ADENOMA, Dose [Carcinogen]: 40 MG/KG ONCE", "result": "3/10 (30%), 4/29 (14%), 53%, p<0.025"}, {"measurement": "tumour outcome (control, treated, inhibition, significance)", "setting": "Dose [Inhibitor]: 0.05, 0.1 OR 0.2 MILLIMOLAR/KG DIET FOR 32 WK STARTING 1 WK AFTER THE CARCINOGEN DOSE (STUDY DURATION: 33 WK), Strain/Sex: SYRIAN/FEMALE, Target Tissue: Type of Lesion: PANCREAS: ADENOMA, Dose [Carcinogen]: 40 MG/KG ONCE", "result": "10/10 (100%), 29/29 (100%), 0%, not significant"}, {"measurement": "tumour outcome (control, treated, inhibition, significance)", "setting": "Dose [Inhibitor]: 0.05, 0.1 OR 0.2 MILLIMOLAR/KG DIET FOR 32 WK STARTING 1 WK AFTER THE CARCINOGEN DOSE (STUDY DURATION: 33 WK), Strain/Sex: SYRIAN/FEMALE, Target Tissue: Type of Lesion: PANCREAS: CARCINOMA, Dose [Carcinogen]: 40 MG/KG ONCE", "result": "4/10 (40%), 15/29 (52%), -30%, not significant"}, {"measurement": "tumour outcome (control, treated, inhibition, significance)", "setting": "Dose [Inhibitor]: 0.05, 0.1 OR 0.2 MILLIMOLAR/KG DIET FOR 32 WK STARTING 1 WK AFTER THE CARCINOGEN DOSE (STUDY DURATION: 33 WK), Strain/Sex: SYRIAN/MALE, Target Tissue: Type of Lesion: COMMON DUCT: ADENOMA, Dose [Carcinogen]: 40 MG/KG ONCE", "result": "4/12 (33%), 23/29 (79%), -139%, not significant"}, {"measurement": "tumour outcome (control, treated, inhibition, significance)", "setting": "Dose [Inhibitor]: 0.05, 0.1 OR 0.2 MILLIMOLAR/KG DIET FOR 32 WK STARTING 1 WK AFTER THE CARCINOGEN DOSE (STUDY DURATION: 33 WK), Strain/Sex: SYRIAN/MALE, Target Tissue: Type of Lesion: GALL BLADDER: ADENOMA, Dose [Carcinogen]: 40 MG/KG ONCE", "result": "3/12 (25%), 17/29 (59%), -136%, not significant"}, {"measurement": "tumour outcome (control, treated, inhibition, significance)", "setting": "Dose [Inhibitor]: 0.05, 0.1 OR 0.2 MILLIMOLAR/KG DIET FOR 32 WK STARTING 1 WK AFTER THE CARCINOGEN DOSE (STUDY DURATION: 33 WK), Strain/Sex: SYRIAN/MALE, Target Tissue: Type of Lesion: LIVER: ADENOMA, Dose [Carcinogen]: 40 MG/KG ONCE", "result": "6/12 (50%), 8/29 (28%), 44%, not significant"}, {"measurement": "tumour outcome (control, treated, inhibition, significance)", "setting": "Dose [Inhibitor]: 0.05, 0.1 OR 0.2 MILLIMOLAR/KG DIET FOR 32 WK STARTING 1 WK AFTER THE CARCINOGEN DOSE (STUDY DURATION: 33 WK), Strain/Sex: SYRIAN/MALE, Target Tissue: Type of Lesion: LUNG: ADENOMA, Dose [Carcinogen]: 40 MG/KG ONCE", "result": "1/12 (8%), 5/29 (17%), -113%, not significant"}, {"measurement": "tumour outcome (control, treated, inhibition, significance)", "setting": "Dose [Inhibitor]: 0.05, 0.1 OR 0.2 MILLIMOLAR/KG DIET FOR 32 WK STARTING 1 WK AFTER THE CARCINOGEN DOSE (STUDY DURATION: 33 WK), Strain/Sex: SYRIAN/MALE, Target Tissue: Type of Lesion: PANCREAS: ADENOMA, Dose [Carcinogen]: 40 MG/KG ONCE", "result": "12/12 (100%), 29/29 (100%), 0%, not significant"}, {"measurement": "tumour outcome (control, treated, inhibition, significance)", "setting": "Dose [Inhibitor]: 0.05, 0.1 OR 0.2 MILLIMOLAR/KG DIET FOR 32 WK STARTING 1 WK AFTER THE CARCINOGEN DOSE (STUDY DURATION: 33 WK), Strain/Sex: SYRIAN/MALE, Target Tissue: Type of Lesion: PANCREAS: CARCINOMA, Dose [Carcinogen]: 40 MG/KG ONCE", "result": "6/12 (50%), 10/29 (34%), 32%, not significant"}, {"measurement": "tumour outcome (control, treated, inhibition, significance)", "setting": "Dose [Inhibitor]: 0.05, 0.1 OR 0.2 MM/KG DIET FOR 32 WK STARTING 1 WK AFTER THE CARCINOGEN DOSE (STUDY DURATION: 33 WK), Strain/Sex: SYRIAN/FEMALE, Target Tissue: Type of Lesion: PANCREAS: ADENOCARCINOMA, Dose [Carcinogen]: 40 MG/KG, ONCE, ONE WK PRIOR TO START OF AGENT TREATMENT", "result": "2/10 (20%), 2/29 (7%), 65%, not significant"}]}
